Source: patent publication US20240307485A1, “WS635 USES THEREOF IN MEDICINE” (WATERSTONE PHARMACEUTICALS (WUHAN) CO., LTD., priority 2021, published 2024)
“Also recorded” adds a separate entry of the source.

Legend:
[1] = Toxicity test of repeated oral administration for 9 days in rats; details: rat, in vivo, read-out: NOAEL (No Observed Adverse Effect Level) dose
[2] = test system: wound healing model of SD rats; assay: Skin wound healing model in SD rats (full-thickness circular skin wound, 2 cm diameter); format: in vivo; details: for wound area compared with the model group: once a day, WS635 oral 52.8 mg/kg, rb-bFGF external 262.5 IU/cm2, P<0.05, P<0.01; for wound healing rate over the administration cycle: once a day for 7 days, time course
Method: Eighteen 6-week-old male SD rats were randomly divided into 3 groups: model group, test article group and positive control group, with 6 rats in each group. Skin wound surgery was performed after anesthesia, and oral administration was started 2 h after skin wound formation. All rats were raised in a single cage. […]. The surgical details were as follows: All animals were anesthetized with 10% chloral hydrate solution (3 mL/kg) by intraperitoneal injection, their backs were depatured with pet shaving knives, and a circular mark with a diameter of 2 cm was made. After the skin was disinfected with alcohol, the full layer of skin was removed with surgical scissors along the marking line, and the wound surface was pressed to stop bleeding. The model group was orally given 10% DMSO corn oil, the test group was orally given WS635 (corn oil dissolved in 10% DMSO) at 52.8 mg/kg, and the positive control group was given 262.5 IU/cm2 (62.5 μL/cm^2) recombinant bovine basic fibroblast growth factor (rb-bFGF) external solution, once a day for 7 days. Digital photos were taken of the wound of each rat under the same conditions. The wound was recorded with plastic transparent paper, and the wound area was scanned by image J software after the wound was recorded with plastic transparent paper. Wound healing rate was calculated according to wound area (%)=(area after administration−area before administration)/area before administration 100%.

[3] = test system: angiogenesis; assay: Angiogenesis in rats; format: in vivo

Compound	NOAEL at 9 days [1]	wound area compared with the model group ([2]; Day 3)	wound area compared with the model group ([2]; Day 7)	wound healing effect of WS635 compared with rb-bFGF ([2]; WS635 oral 52.8 mg/kg vs rb-bFGF 262.5 IU/cm2, P>0.05, 52.8 mg/kg)	wound healing rate over the administration cycle [2]	wound healing (overall conclusion) ([2]; oral administration, SD rats)	angiogenesis [3]
C/C=C/C[C@@H](C)[C@@H](O)[C@H]1C(=O)N[C@@H](CC)C(=O)N(C)[C@H](SCCN(C)C)C(=O)N(C)[C@@H](CC(C)(C)O)C(=O)N[C@@H](C(C)C)C(=O)N(C)[C@@H](CC(C)C)C(=O)N[C@@H](C)C(=O)N[C@H](C)C(=O)N(C)[C@@H](CC(C)C)C(=O)N(C)[C@@H](CC(C)C)C(=O)N(C)[C@@H](C(C)C)C(=O)N1C [WS635, (3S,6S,9S,12R,15S,18S,21S,24S,27R,30S,33S)-27-((2-(dimethylamino)ethyl)thio)-30-ethyl-3 3-((1R,2R,E)-1-hydroxy-2-methylhex-4-en-1-yl)-24-(2-hydroxy-2-methylpropyl)-6,9,18-triisobutyl-3,21-diisopropyl-1,4,7,10,12,15,19,25,28-nonamethyl-1,4,7,10,13,16,19,22,25,28,31-undecaazacyclotritriacontan-2,5,8,11,14,17,20,23,26,29,32-undecaone]	80 mg/kg/day	decreased significantly	decreased significantly	equivalent to rb-bFGF; also recorded: no significant difference	enhances wound healing rate in a time-dependent manner; also recorded: increased with the extension of administration time	significantly promote wound healing	significantly promote angiogenesis
rb-bFGF: recombinant bovine basic fibroblast growth factor (rb-bFGF) external solution, positive control		decreased significantly	decreased significantly		increased with the extension of administration time		
